{"source": "paper PMC8802628", "about": "“Selective activation of PFKL suppresses the phagocytic oxidative burst” (Cell, 2021)", "key": {"[1]": {"biological_target": "T1, PFKL(V545L, V582M) (PFKL−hook) (Homo sapiens, UniProt P17858, V545L/V582M)", "T1 construct": "made in house; host or cells: Sf9 insect cells (baculovirus)", "T1 sequence (P17858 1-780 V545L/V582M)": "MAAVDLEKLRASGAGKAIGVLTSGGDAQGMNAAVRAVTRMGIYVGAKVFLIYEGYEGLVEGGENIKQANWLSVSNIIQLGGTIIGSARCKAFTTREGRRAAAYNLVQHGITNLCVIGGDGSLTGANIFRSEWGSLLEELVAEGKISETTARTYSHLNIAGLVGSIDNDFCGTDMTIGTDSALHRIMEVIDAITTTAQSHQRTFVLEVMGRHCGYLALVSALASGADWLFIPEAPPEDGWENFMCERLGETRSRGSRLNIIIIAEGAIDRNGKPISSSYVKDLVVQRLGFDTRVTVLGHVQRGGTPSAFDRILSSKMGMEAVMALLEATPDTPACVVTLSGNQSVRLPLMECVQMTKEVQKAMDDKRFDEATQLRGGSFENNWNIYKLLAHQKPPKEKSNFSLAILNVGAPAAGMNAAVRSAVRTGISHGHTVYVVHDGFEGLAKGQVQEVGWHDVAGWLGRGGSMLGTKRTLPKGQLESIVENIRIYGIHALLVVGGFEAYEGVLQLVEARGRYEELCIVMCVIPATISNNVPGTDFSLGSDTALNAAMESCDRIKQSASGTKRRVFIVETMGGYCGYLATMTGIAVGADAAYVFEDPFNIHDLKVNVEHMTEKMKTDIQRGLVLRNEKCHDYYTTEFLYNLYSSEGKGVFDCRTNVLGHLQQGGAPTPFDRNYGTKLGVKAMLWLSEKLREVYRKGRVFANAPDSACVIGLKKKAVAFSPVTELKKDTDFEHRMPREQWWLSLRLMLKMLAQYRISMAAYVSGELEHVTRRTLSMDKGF", "assay": "Recombinant PFKL−hook activity assay", "assay_type": "biochemical", "conditions": "for EC50: pH 7.5, 3.1 mM ATP, 2.5 mM F6P, mean ± SEM, read-out: EC50, activation of PFKL−hook", "excerpt": "(§1) Recombinant N-terminal His-tagged human PFKL (NP_002617), PFKM (NP_000280), and PFKP (NM_002627.4) were generated as described ([Webb et al., 2015], [2017]). Point mutants of PFK1 were generated using the QuikChange Lightning kit (Aligent).\n(§2) His-tagged PFK1 was expressed and purified as described with slight modifications ([Webb et al., 2015], [2017]). Briefly, baculovirus was generated using the Bac-to-Bac Expression system (Invitrogen). PFK1 was expressed in 2-5 × 10^6 sf9 cells at a multiplicity of infection of two for 48 h. Cells were lysed in 20 mM HEPES, pH 7.5, 80 mM potassium phosphate, 1 mM 2-mercapentoethanol, 10% glycerol, 10 mM imidazole, and EDTA-free Protease Inhibitor Cocktail (Abcam) with a Dounce homogenizer. The soluble lysate was incubated with HisPur cobalt resin (ThermoFisher Scientific). The resin was washed with 5 bead volumes lysis buffer, 10 bead volumes lysis buffer containing 2 M NaCl, and 5 further bead volumes lysis buffer. PFK1 was eluted in lysis buffer containing 100 mM imidazole. Fractions containing protein were pooled, passed over a desalting column equilibrated in freezing buffer [20 mM HEPES pH 7.5, 1 mM DTT, 500 μM ammonium sulfate, 5% glycerol, 1 mM ATP, and 100 μM EDTA] and concentrated using an Amicon Ultracel-30K Centrifugal Filter Unit (MilliporeSigma). Protein was quantified using a Bradford Protein Assay kit (ThermoFisher Scientific), and aliquotes frozen in liquid nitrogen for storage at −80°C.\nPFK1 activity was determined using the rate of FBP production via an auxiliary enzyme assay adapted to a 96-well format ([Brüser et al., 2012]; [Webb et al., 2015]). The auxiliary enzymes aldolase, triosephosphate isomerase, and glycerol phosphate dehydrogenase were purchased from MilliporeSigma as ammonium sulfate slurries and desalted using an Amicon Ultracel-10K Centrifugal Filter Unit. For assays containing FBP, the rate of ADP production was determined using the auxiliary enzymes pyruvate kinase (PK) and lactate dehydrogenase (LDH) (MilliporeSigma) in a buffer containing 250 μM phosphoenolpyruvic acid, […] NADH, 50 mM HEPES pH 7.5, 100 mM KCl, 1 mM DTT, and effector concentrations as described in the text. The temperature was equilibrated to 25°C for 5 min before initiating the reaction 10 mM MgCl2. Absorbance at 340 nm was measured using a Varioskan LUX Multimode microplate reader (ThermoFisher). Kinetic parameters were generated by nonlinear regression analysis using Prism (GraphPad Software) and are the mean of a minimum of three measurements from two independent preparations of protein. One unit of activity was defined as the amount of enzyme that catalyzed the formation of 1 μmol of fructose 1,6-bisphosphate per min at 25°C. […]"}, "[2]": {"biological_target": "T2, PFKL (Homo sapiens, UniProt P17858)", "T2 construct": "made in house; host or cells: Sf9 insect cells (baculovirus, Bac-to-Bac)", "T2 sequence (P17858 1-780)": "T1 sequence (P17858 1-780 V545L/V582M) with L545V, M582V", "assay": "Recombinant PFKL activity assay (relief of ATP inhibition)", "assay_type": "biochemical", "excerpt": "as §1, §2\nPFK1 activity was determined using the rate of FBP production via an auxiliary enzyme assay adapted to a 96-well format ([Brüser et al., 2012]; [Webb et al., 2015]). The auxiliary enzymes aldolase, triosephosphate isomerase, and glycerol phosphate dehydrogenase were purchased from MilliporeSigma as ammonium sulfate slurries and desalted using an Amicon Ultracel-10K Centrifugal Filter Unit. For assays containing FBP, the rate of ADP production was determined using the auxiliary enzymes pyruvate kinase (PK) and lactate dehydrogenase (LDH) (MilliporeSigma) in a buffer containing 250 μM phosphoenolpyruvic acid, […] NADH, 50 mM HEPES pH 7.5, 100 mM KCl, 1 mM DTT, and effector concentrations as described in the text. The temperature was equilibrated to 25°C for 5 min before initiating the reaction 10 mM MgCl2. Absorbance at 340 nm was measured using a Varioskan LUX Multimode microplate reader (ThermoFisher). Kinetic parameters were generated by nonlinear regression analysis using Prism (GraphPad Software) and are the mean of a minimum of three measurements from two independent preparations of protein. One unit of activity was defined as the amount of enzyme that catalyzed the formation of 1 μmol of fructose 1,6-bisphosphate per min at 25°C. Assays for PFKM were performed at pH 7.0 due to the pH-dependence of ATP inhibition ([Trivedi and Danforth, 1966])."}, "[3]": {"conditions": "PFKL wild type, pH 7.5, 225 μM ATP"}, "[4]": {"conditions": "pH 7.5, 3.1 mM ATP, 4 mM F6P, mean ± SEM, read-out: EC50, activation of PFKL wild type"}}, "note": "Substitutions are numbered along the chain they refer to. Like-named read-outs stand apart in the source and are kept apart here.", "data": [{"molecule": "O=C(CO)[C@@H](O)[C@H](O)[C@H](O)COP(=O)(O)O", "note": "[F6P, fructose 6-phosphate]", "values": [{"measurement": "Vmax,F6P", "setting": "[1]; PFKL−hook, pH 7.5, 225 μM ATP", "result": "11.50 ± 0.57 micromoles FBP per minute per milligram PFK1"}, {"measurement": "hF6P (Hill coefficient)", "setting": "[1]; PFKL−hook, pH 7.5, 225 μM ATP", "result": "2.87 ± 0.50"}, {"measurement": "Vmax,F6P", "setting": "[2]; [3]", "result": "13.28 ± 1.69 micromoles FBP per minute per milligram PFK1"}, {"measurement": "hF6P (Hill coefficient)", "setting": "[2]; [3]", "result": "3.16 ± 0.89"}]}, {"molecule": "CC(=O)Nc1ccc2c(c1)OCc1cc(-c3ccccc3C#CCCCO)nn1C2", "note": "[NA-11]", "values": [{"measurement": "EC50", "setting": "[1]", "result": "53.3 ± 5.77", "unit": "nM"}, {"measurement": "EC50", "setting": "[2]; Control (ligand series), pH 7.5, 4.0 mM F6P, 3.1 mM ATP, read-out: EC50, NA-11", "result": "12 ± 2.73", "unit": "nM"}, {"measurement": "Vmax", "setting": "[2]; NA-11 titration with 50 μM AMP, pH 7.5, 4.0 mM F6P, 3.1 mM ATP", "result": "18.11 ± 1.23 μmoles FBP per min per mg PFK1"}, {"measurement": "Vmax", "setting": "[2]; NA-11 titration with 200 μM FBP, pH 7.5, 4.0 mM F6P, 3.1 mM ATP", "result": "21.31 ± 2.44 μmoles FBP per min per mg PFK1"}, {"measurement": "Vmax", "setting": "[2]; NA-11 titration, Control, pH 7.5, 4.0 mM F6P, 3.1 mM ATP", "result": "18.19 ± 1.29 μmoles FBP per min per mg PFK1"}, {"measurement": "EC50", "setting": "[2]; pH 7.0, 4.0 mM F6P, 3.1 mM ATP, mean ± s.e.m., read-out: EC50, NA-11", "result": "74 ± 20.9", "unit": "nM"}, {"measurement": "EC50", "setting": "[2]; pH 7.5 (pH series), 4.0 mM F6P, 3.1 mM ATP, mean ± s.e.m., read-out: EC50, NA-11", "result": "21.8 ± 6.21", "unit": "nM"}, {"measurement": "EC50", "setting": "[2]; [4]", "result": "14 ± 2.91", "unit": "nM"}, {"measurement": "EC50", "setting": "[2]; pH 8.0, 4.0 mM F6P, 3.1 mM ATP, mean ± s.e.m., read-out: EC50, NA-11", "result": "4.11 ± 0.92", "unit": "nM"}, {"measurement": "EC50", "setting": "[2]; with 50 μM AMP, pH 7.5, 4.0 mM F6P, 3.1 mM ATP, read-out: EC50, NA-11", "result": "12.3 ± 3.38", "unit": "nM"}, {"measurement": "EC50", "setting": "[2]; with 200 μM FBP, pH 7.5, 4.0 mM F6P, 3.1 mM ATP, read-out: EC50, NA-11", "result": "12 ± 6.99", "unit": "nM"}]}, {"molecule": "CC(=O)Nc1ccc2c(c1)OCc1cc(-c3ccccc3)nn1C2", "note": "[NA-5]", "values": [{"measurement": "EC50", "setting": "[1]", "result": "18.1 ± 3.19", "unit": "nM"}, {"measurement": "EC50", "setting": "[2]; [4]", "result": "19.2 ± 6.79", "unit": "nM"}]}, {"molecule": "COc1ccccc1-c1cc2n(n1)Cc1ccc(NC(C)=O)cc1OC2", "note": "[LDC7559, reference compound]", "values": [{"measurement": "EC50", "setting": "[2]; [4]", "result": "66 ± 18.9", "unit": "nM"}]}]}
